From ChEMBL document CHEMBL1821596, “Isolation and structural identification of a direct-acting mutagen derived from N-nitroso-N-methylpentylamine and Fenton's reagent with copper ion” (Bioorg Med Chem, 2011)

Key:
Format in all cases: toxicity, organism-based
Conditions in all cases: salmonella enterica subsp. enterica serovar typhimurium
Salmonella typhimurium [1] = assay: Mutagenic activity in Salmonella Typhimurium TA1535 at 100 uM after 2 hrs by plate-incorporating method
Salmonella typhimurium [2] = assay: Mutagenic activity in Salmonella Typhimurium TA1535 at 100 uM after 2 hrs by plate-incorporating method in presence of Fe2+-H2O2
Salmonella typhimurium [3] = assay: Mutagenic activity in Salmonella Typhimurium TA1535 at 100 uM after 2 hrs by plate-incorporating method in presence of H2O2
Salmonella typhimurium [4] = assay: Mutagenic activity in Salmonella Typhimurium TA1535 at 100 uM after 2 hrs by plate-incorporating method in presence of Fe2+-Cu2+-H2O2
Salmonella typhimurium [5] = assay: Mutagenic activity in Salmonella Typhimurium TA1535 at 100 uM after 2 hrs by plate-incorporating method in presence of Fe2+-Cu2+-H2O2 and nitric oxide
Salmonella typhimurium [6] = assay: Mutagenic activity in Salmonella Typhimurium TA1535 at 100 uM after 2 hrs by plate-incorporating method in presence of Cu2+-Fe2+
Salmonella typhimurium [7] = assay: Mutagenic activity in Salmonella Typhimurium TA1535 at 100 uM after 2 hrs by plate-incorporating method in presence of Cu2+-H2O2

CCC1([N+](=O)[O-])CCN=[N+]1[O-] (configuration not stated)
Activity (Salmonella typhimurium [1]): Toxic

CCCCCN(C)N=O
Activity (Salmonella typhimurium [2]): Non-toxic | Activity (Salmonella typhimurium [3]): Non-toxic | Activity (Salmonella typhimurium [4]): Toxic | Activity (Salmonella typhimurium [5]): Toxic | Activity (Salmonella typhimurium [6]): Non-toxic | Activity (Salmonella typhimurium [7]): Toxic
